Tests used:
Assay in all cases: biochemical
Design in all cases: KinomeScan competition binding panel (DiscoveRx), percent of control at 1 uM
Conditions in all cases: read-out: Percent Control
HASPIN = HASPIN (Homo sapiens, UniProt Q8TF76)
In short: (§1)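 KinomeScan technology used to profile binding across a panel of 456 kinases and mutants.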

TAK1 = target: T1, TAK1 (Homo sapiens, UniProt O43318)
T1 construct: gene MAP3K7
In short: as §1

PRKR = target: T2, PRKR (Homo sapiens, UniProt P19525)
T2 construct: gene EIF2AK2
In short: as §1

MAP3K4 = MAP3K4 (Homo sapiens, UniProt Q9Y6R4)
In short: as §1

ROS1 = ROS1 (Homo sapiens, UniProt P08922)
ROS1, sequence (P08922 whole entry): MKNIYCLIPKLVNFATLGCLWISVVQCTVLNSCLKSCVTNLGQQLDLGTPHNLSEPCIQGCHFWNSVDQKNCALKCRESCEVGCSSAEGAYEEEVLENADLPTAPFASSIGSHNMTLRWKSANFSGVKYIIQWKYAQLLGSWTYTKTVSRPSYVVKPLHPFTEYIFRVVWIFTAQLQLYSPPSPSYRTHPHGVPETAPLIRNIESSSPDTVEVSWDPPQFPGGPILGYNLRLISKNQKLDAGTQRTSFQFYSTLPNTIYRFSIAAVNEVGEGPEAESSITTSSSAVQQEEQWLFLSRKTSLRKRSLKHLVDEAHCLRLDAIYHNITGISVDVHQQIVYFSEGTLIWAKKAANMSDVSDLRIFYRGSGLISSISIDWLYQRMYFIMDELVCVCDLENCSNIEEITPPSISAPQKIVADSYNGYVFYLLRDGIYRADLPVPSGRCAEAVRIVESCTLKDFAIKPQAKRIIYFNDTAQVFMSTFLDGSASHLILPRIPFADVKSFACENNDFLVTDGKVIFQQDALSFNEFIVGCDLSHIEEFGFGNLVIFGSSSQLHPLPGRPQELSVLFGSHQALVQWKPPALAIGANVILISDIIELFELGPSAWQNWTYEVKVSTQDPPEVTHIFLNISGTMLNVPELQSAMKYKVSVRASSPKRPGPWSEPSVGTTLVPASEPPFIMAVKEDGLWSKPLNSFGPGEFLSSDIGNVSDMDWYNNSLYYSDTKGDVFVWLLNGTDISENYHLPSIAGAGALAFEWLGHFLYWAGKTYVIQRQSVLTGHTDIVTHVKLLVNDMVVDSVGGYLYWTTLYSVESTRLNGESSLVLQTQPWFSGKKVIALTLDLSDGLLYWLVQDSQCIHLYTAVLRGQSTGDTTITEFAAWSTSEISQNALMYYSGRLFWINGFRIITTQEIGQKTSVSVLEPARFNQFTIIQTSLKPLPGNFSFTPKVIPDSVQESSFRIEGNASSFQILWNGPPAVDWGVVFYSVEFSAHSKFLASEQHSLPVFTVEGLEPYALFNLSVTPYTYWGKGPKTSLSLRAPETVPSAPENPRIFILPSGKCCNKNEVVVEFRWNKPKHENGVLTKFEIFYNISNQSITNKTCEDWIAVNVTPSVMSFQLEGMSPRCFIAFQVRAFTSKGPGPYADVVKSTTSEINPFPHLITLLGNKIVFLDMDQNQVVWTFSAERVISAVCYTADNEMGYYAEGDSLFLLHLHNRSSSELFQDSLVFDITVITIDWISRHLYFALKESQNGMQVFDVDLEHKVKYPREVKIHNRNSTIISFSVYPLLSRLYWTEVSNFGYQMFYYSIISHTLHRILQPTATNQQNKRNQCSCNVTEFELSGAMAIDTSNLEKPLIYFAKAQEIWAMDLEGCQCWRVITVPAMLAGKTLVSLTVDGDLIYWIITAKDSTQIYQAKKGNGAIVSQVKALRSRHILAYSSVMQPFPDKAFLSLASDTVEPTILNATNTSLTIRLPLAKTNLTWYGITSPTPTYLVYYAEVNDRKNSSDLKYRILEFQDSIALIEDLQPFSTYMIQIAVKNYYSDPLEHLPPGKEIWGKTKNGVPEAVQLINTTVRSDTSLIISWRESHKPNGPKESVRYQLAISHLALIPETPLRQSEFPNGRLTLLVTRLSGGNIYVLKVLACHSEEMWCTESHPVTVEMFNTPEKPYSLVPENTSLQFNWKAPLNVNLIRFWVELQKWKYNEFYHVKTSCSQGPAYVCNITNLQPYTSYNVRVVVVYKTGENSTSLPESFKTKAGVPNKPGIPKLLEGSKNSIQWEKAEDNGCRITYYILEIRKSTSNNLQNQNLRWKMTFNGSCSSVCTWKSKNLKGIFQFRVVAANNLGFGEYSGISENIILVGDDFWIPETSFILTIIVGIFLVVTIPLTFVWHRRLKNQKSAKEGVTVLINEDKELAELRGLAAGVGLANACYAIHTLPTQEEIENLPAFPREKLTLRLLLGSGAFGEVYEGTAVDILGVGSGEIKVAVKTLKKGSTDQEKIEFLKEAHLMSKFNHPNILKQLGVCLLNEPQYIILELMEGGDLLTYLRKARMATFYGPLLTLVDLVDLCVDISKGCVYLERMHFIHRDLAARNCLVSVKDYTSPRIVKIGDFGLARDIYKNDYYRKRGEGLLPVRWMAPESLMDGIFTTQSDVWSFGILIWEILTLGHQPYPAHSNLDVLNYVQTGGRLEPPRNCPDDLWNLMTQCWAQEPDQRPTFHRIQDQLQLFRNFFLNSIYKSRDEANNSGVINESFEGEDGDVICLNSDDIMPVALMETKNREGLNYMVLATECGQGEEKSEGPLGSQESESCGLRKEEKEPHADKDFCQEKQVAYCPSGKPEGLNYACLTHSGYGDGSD
In short: as §1

DAPK1 = DAPK1 (Homo sapiens, UniProt P53355)
DAPK1, sequence (P53355 whole entry): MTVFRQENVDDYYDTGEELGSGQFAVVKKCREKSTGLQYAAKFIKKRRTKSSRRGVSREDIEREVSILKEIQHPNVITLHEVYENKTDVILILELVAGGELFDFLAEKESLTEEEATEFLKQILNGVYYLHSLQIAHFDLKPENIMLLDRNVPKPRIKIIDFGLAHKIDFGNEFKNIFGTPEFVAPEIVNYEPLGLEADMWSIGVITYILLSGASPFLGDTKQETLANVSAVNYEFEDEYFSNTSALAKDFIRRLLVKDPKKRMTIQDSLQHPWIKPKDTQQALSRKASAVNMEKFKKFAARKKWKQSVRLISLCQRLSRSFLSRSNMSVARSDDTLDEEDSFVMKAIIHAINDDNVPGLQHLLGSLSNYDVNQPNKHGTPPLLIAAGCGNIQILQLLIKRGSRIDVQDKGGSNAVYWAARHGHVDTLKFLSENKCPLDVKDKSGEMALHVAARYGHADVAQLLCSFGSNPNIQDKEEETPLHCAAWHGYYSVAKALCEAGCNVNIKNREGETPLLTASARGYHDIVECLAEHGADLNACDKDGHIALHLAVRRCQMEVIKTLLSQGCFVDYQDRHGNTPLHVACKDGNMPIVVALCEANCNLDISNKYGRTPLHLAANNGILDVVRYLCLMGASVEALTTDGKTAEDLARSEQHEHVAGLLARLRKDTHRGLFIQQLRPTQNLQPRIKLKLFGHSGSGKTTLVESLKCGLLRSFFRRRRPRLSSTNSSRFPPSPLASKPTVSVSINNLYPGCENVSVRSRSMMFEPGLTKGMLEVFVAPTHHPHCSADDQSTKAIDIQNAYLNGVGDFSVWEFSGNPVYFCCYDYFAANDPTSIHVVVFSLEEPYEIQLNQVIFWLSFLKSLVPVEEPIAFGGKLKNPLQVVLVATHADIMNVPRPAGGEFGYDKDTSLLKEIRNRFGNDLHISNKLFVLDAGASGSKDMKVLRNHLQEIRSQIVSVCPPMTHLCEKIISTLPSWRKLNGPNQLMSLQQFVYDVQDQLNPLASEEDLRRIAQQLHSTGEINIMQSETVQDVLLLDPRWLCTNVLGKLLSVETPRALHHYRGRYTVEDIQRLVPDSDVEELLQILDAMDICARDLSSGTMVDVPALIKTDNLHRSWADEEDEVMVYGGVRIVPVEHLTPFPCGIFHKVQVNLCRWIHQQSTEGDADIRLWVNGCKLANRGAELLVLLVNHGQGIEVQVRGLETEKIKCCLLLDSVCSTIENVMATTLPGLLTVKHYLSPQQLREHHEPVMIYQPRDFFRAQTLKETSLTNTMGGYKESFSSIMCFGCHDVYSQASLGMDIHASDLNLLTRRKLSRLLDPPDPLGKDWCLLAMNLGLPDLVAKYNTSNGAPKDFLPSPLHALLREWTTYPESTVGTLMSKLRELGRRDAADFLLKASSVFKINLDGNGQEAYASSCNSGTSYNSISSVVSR
In short: as §1

MARK3 = MARK3 (Homo sapiens, UniProt P27448)
In short: as §1

DCAMKL2 = target: T3, DCAMKL2 (Homo sapiens, UniProt Q8N568)
T3 construct: gene DCLK2
In short: as §1

EGFR = EGFR (Homo sapiens, UniProt P00533)
In short: as §1

CHEK2 = CHEK2 (Homo sapiens, UniProt O96017)
In short: as §1

AURKA = AURKA (Homo sapiens, UniProt O14965)
In short: as §1

CAMK1 = CAMK1 (Homo sapiens, UniProt Q14012)
In short: as §1

DRAK2 = target: T4, DRAK2 (Homo sapiens, UniProt O94768)
T4 construct: gene STK17B
In short: as §1

TAOK3 = TAOK3 (Homo sapiens, UniProt Q9H2K8)
In short: as §1

RIPK1 = RIPK1 (Homo sapiens, UniProt Q13546)
RIPK1, sequence (Q13546 whole entry): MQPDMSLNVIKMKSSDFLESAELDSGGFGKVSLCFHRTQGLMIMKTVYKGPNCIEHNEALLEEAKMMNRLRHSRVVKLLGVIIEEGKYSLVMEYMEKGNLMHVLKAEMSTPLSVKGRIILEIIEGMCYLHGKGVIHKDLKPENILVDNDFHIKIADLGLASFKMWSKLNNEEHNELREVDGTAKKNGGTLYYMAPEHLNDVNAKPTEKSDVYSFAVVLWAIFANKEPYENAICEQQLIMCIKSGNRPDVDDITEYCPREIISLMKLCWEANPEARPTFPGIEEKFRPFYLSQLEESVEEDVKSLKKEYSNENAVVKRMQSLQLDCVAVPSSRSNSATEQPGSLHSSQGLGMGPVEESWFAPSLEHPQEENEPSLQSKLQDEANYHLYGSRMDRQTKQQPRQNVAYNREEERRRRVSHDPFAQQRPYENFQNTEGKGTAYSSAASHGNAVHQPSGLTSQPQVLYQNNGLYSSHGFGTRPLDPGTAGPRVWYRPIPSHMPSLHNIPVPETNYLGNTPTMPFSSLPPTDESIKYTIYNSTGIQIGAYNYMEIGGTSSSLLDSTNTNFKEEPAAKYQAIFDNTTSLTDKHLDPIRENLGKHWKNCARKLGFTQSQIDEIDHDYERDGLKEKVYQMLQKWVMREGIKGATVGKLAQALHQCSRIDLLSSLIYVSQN
In short: as §1

LCK = LCK (Homo sapiens, UniProt P06239)
In short: as §1

CLK1 = CLK1 (Homo sapiens, UniProt P49759)
In short: as §1

HIPK1 = HIPK1 (Homo sapiens, UniProt Q86Z02)
In short: as §1

S6K1 = target: T5, S6K1 (Homo sapiens, UniProt P23443)
T5 construct: gene RPS6KB1
T5 sequence (P23443 whole entry): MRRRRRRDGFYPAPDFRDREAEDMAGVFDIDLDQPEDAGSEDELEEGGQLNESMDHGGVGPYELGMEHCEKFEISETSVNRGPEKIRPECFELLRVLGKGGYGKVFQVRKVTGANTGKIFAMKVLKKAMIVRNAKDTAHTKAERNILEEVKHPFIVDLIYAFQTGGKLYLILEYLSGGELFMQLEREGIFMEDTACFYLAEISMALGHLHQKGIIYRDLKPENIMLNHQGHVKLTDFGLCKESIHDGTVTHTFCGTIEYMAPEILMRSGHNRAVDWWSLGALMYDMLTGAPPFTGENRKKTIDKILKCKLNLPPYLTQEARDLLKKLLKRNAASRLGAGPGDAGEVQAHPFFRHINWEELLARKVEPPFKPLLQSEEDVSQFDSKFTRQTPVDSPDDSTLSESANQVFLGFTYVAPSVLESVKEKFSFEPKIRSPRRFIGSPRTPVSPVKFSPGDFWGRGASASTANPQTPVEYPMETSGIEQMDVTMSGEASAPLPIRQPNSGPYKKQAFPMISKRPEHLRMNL
In short: as §1

MYLK2 = MYLK2 (Homo sapiens, UniProt Q9H1R3)
In short: as §1

SRC = SRC (Homo sapiens, UniProt P12931)
In short: as §1

ACVR2A = ACVR2A (Homo sapiens, UniProt P27037)
In short: as §1

MUSK = MUSK (Homo sapiens, UniProt O15146)
In short: as §1

PIM3 = PIM3 (Homo sapiens, UniProt Q86V86)
In short: as §1

EPHB1 = EPHB1 (Homo sapiens, UniProt P54762)
In short: as §1

Question: For `C=CC(=O)Nc1cc(-n2c(=O)ccc3cnc4ccc(-n5cccn5)cc4c32)ccc1C` [CHMFL-BTK-11], which remaining binding at 1 µM (HASPIN) is on record?
Answer: 59%

Question: What about the remaining binding at 1 µM (TAK1) of the same molecule?
Answer: 98%

Question: And the remaining binding at 1 µM (PRKR)?
Answer: 80%

Question: And the remaining binding at 1 µM (MAP3K4)?
Answer: 97%

Question: What about the remaining binding at 1 µM (ROS1) of the same molecule?
Answer: 94%

Question: What about the remaining binding at 1 µM (DAPK1) of the same molecule?
Answer: 100%

Question: And the remaining binding at 1 µM (MARK3)?
Answer: 100%

Question: And the remaining binding at 1 µM (DCAMKL2)?
Answer: 100%

Question: And the remaining binding at 1 µM (EGFR)?
Answer: 88%

Question: And the remaining binding at 1 µM (CHEK2)?
Answer: 100%

Question: And the remaining binding at 1 µM (AURKA)?
Answer: 71%

Question: And the remaining binding at 1 µM (CAMK1)?
Answer: 98%

Question: What about the remaining binding at 1 µM (DRAK2) of the same molecule?
Answer: 95%

Question: And the remaining binding at 1 µM (TAOK3)?
Answer: 93%

Question: And the remaining binding at 1 µM (RIPK1)?
Answer: 90%

Question: What about the remaining binding at 1 µM (LCK) of the same molecule?
Answer: 100%

Question: What about the remaining binding at 1 µM (CLK1) of the same molecule?
Answer: 92%

Question: What about the remaining binding at 1 µM (HIPK1) of the same molecule?
Answer: 79%

Question: And the remaining binding at 1 µM (S6K1)?
Answer: 100%

Question: And the remaining binding at 1 µM (MYLK2)?
Answer: 100%

Question: What about the remaining binding at 1 µM (SRC) of the same molecule?
Answer: 98%

Question: What about the remaining binding at 1 µM (ACVR2A) of the same molecule?
Answer: 100%

Question: And the remaining binding at 1 µM (MUSK)?
Answer: 100%

Question: And the remaining binding at 1 µM (PIM3)?
Answer: 95%

Question: And the remaining binding at 1 µM (EPHB1)?
Answer: 100%
